From US9850283B2, “Macrocyclic inhibitors of the PD-1/PD-L1 and CD80(B7-1)/PD-L1 protein/protein interactions” (BRISTOL-MYERS SQUIBB COMPANY, priority 2013, dated 2017)
Read-outs that look alike come from different tables or passages of the source. Starred links: 1 amine or outer side, 2 acyl side, 3 side chain; linkers in the order of their positions; H or OH if unused. Positions of bridges follow the written chain, without caps; N, C: chain ends. Non-standard residues stand in square brackets, D forms with d. Residues, ends and D or L forms follow the SMILES beside them. ξ: configuration not given here. *: point of attachment. X7 = COc1ccc(-c2[nH]c3ccccc3c2C[C@H](N[*:1])C(=O)[*:2])cc1; X14 = O=C([C@H](Cc1cc(F)c(F)c(Cl)c1)N[*:1])[*:2]; Cyclohexanecarbonyl = O=C(C1CCCCC1)*; Bta = N[C@@H](Cc1csc2ccccc12)C(=O)O; Hyp = O=C(O)[C@@H]1C[C@@H](O)CN1; NMeF = CN[C@@H](Cc1ccccc1)C(=O)O; dNMeNle = CCCC[C@@H](NC)C(=O)O; NMeNle = CCCC[C@H](NC)C(=O)O; ξR = N=C(N)NCCCC(N)C(=O)O; NMeA = CN[C@@H](C)C(=O)O; dDap = NC[C@@H](N)C(=O)O; Dab = NCC[C@H](N)C(=O)O; Dap = NC[C@H](N)C(=O)O; ξP = O=C(O)C1CCCN1; ξC = NC(CS)C(=O)O; Sar = CNCC(=O)O

Tests used:
[1] = target: T1, Human PD-L1/PD-1 (Homo sapiens, UniProt Q9NZQ7); assay: HTRF PD-1-Ig/PD-L1-His binding assay (human PD-L1); settings: cluster symbol; read-out: HTRF IC50 cluster
T1 construct: made in house; host or cells: HEK293T
T1 sequence (Q9NZQ7 with tags, fused parts or gaps): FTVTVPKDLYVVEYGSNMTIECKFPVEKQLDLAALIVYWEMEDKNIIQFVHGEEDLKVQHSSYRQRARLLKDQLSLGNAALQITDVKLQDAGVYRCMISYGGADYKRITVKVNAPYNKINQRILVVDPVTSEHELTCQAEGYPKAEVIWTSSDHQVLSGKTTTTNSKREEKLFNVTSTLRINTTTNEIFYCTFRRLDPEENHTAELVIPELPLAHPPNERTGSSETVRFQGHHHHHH
How it was run: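 Steps: truncated PD-1-Ig and PD-L1-His fusions are incubated in dPBS containing 0.1% (w/v) BSA and 0.05% (v/v) Tween-20. Detection antibodies are then added (Eu cryptate anti-Ig at 1 nM final, APC anti-His at 20 nM final), and time-resolved FRET is measured.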

[2] = target: T2, LK35.2-hPD-L1 cells / PE-labeled PD-1-Ig (Homo sapiens, UniProt Q9NZQ7); assay: LK35.2-hPD-L1 cell binding high-content screening assay; type: cell-based; settings: cluster symbol, read-out: CBA IC50 cluster
T2 construct: expressed in transfected cells; host or cells: LK35.2 mouse B cell line
T2 sequence (Q9NZQ7 19-290): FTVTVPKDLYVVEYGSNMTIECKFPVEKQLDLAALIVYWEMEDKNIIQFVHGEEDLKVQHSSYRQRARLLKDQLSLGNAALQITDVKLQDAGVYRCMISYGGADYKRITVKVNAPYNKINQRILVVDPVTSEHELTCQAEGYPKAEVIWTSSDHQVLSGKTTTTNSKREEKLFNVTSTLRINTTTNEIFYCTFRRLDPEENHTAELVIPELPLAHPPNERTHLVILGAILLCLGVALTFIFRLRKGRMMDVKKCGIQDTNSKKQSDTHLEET
How it was run: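 Mouse LK35.2 B cells stably overexpressing human PD-L1 were cultured overnight in RPMI with 10% FCS, then given compound and PE-labeled human PD-1-Ig (1 nM final) for 1 h at 37 °C. After three dPBS washes, bound fluorescence was quantified by high-content imaging.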

[3] = cell line of CBA not given (LK35.2-hPD-L1 or 293T-hPD-L1)
[4] = cell binding assay, cell line not given

Structure (SMILES) | IC50 [1] [nM] | IC50 [2, 3] [nM] | IC50 [2, 4] [nM]
CCCC[C@H]1C(=O)N(C)CC(=O)N[C@@H](CC(=O)O)C(=O)N[C@@H](C(C)C)C(=O)N(C)[C@@H](Cc2ccccc2)C(=O)N[C@@H](Cc2ccc(O)cc2)C(=O)N(C)CC(=O)N[C@@H](Cc2c[nH]c3ccccc23)C(=O)N[C@@H](Cc2ccc(O)cc2)C(=O)N[C@@H](CCN)C(=O)N[C@H](C(=O)NCC(N)=O)CSCC(=O)N[C@@H](Cc2ccccc2)C(=O)N(C)[C@@H](Cc2ccccc2)C(=O)N1C [Example 3162] (HELM PEPTIDE1{[O=C(C[*:3])[*:2]].F.[meF].[CCCC[C@@H](C(=O)[*:2])N(C)[*:1]].[Sar].D.V.[meF].Y.[Sar].W.Y.[Dab].C.G.[am]}$PEPTIDE1,PEPTIDE1,1:R3-14:R3$$$V2.0) | 6.76 to 30.3 | 4.78 to 72.9 | –
CCCC[C@H]1C(=O)N(C)[C@@H](CO)C(=O)N[C@@H](CCCNC(=N)N)C(=O)NC(C(=O)NCC(N)=O)CSCC(=O)N[C@@H](Cc2ccc(O)cc2)C(=O)N(C)[C@@H](C)C(=O)N[C@@H](CC(N)=O)C(=O)N2CCC[C@H]2C(=O)N[C@@H](Cc2cnc[nH]2)C(=O)N[C@@H](CC(C)C)C(=O)N2C[C@H](O)C[C@H]2C(=O)N[C@@H](Cc2c[nH]c3ccccc23)C(=O)N[C@@H](CO)C(=O)N[C@@H](Cc2c[nH]c3ccccc23)C(=O)N1C (some centres unmarked) [Example 9034] | 6.76 to 30.3 | – | 4.78 to 72.9
CCCC[C@@H]1C(=O)N(C)[C@H](CCCC)C(=O)N[C@@H](CN)C(=O)N[C@@H](C(=O)NCC(N)=O)CSCC(=O)N[C@@H](Cc2ccc(O)cc2)C(=O)N2CCCC2C(=O)N[C@H](CC(=O)O)C(=O)N2CCC[C@H]2C(=O)N[C@H](CN)C(=O)N[C@@H](CCC(N)=O)C(=O)N2CCCC2C(=O)N[C@H](Cc2c[nH]c3ccccc23)C(=O)N[C@@H](CCN)C(=O)N[C@@H](Cc2c[nH]c3ccccc23)C(=O)N1C (some centres unmarked) [Example 1213] ({CH2CO}-Y[ξP][dD]P[dDap]Q[ξP][dW][Dab]W[dNMeNle][dNMeNle][Dap][dC]G-NH2; thioether N-14) | 6.76 to 30.3 | 4.78 to 72.9 | –
CCCC[C@H]1C(=O)N(C)CC(=O)N[C@@H](CC(=O)O)C(=O)N[C@@H](C(C)C)C(=O)N(C)[C@@H](Cc2ccccc2)C(=O)N[C@@H](Cc2ccc(O)cc2)C(=O)N(C)CC(=O)N[C@@H](Cc2c[nH]c3ccccc23)C(=O)N[C@@H](Cc2ccc(O)cc2)C(=O)N[C@@H](CC(C)C)C(=O)N[C@H](C(=O)NCC(N)=O)CSCC(=O)N[C@@H](Cc2cc(F)c(F)c(Cl)c2)C(=O)N(C)[C@@H](Cc2ccccc2)C(=O)N1C [Example 3186] ({CH2CO}-[X14][NMeF][NMeNle][Sar]DV[NMeF]Y[Sar]WYLCG-NH2; thioether N-13) | 6.76 to 30.3 | 0.158 to 4.71 | –
CCCC[C@H]1C(=O)N[C@@H](CCCNC(=N)N)C(=O)N[C@H](C(=O)NCC(N)=O)CSCC(=O)N[C@@H](Cc2ccccc2)C(=O)N(C)[C@@H](C)C(=O)N[C@@H](CC(N)=O)C(=O)N2CCC[C@H]2C(=O)N[C@@H](Cc2cnc[nH]2)C(=O)N[C@@H](CC(C)C)C(=O)N(C)CC(=O)N[C@@H](Cc2c[nH]c3ccccc23)C(=O)N[C@@H](CO)C(=O)N[C@@H](Cc2c[nH]c3ccccc23)C(=O)N[C@@H](CNC(=O)C2CCCCC2)C(=O)N1C [Example 1017] ({CH2CO}-F[NMeA]NPHL[Sar]WSW[Dap](Cyclohexanecarbonyl)[NMeNle]RCG-NH2; thioether N-14) | > 30.5 | > 74.3 | –
CCCC[C@H]1C(=O)N(C)[C@@H](CCCC)C(=O)NC(CCCNC(=N)N)C(=O)N[C@H](C(=O)NCC(N)=O)CSCC(=O)N[C@@H](Cc2ccc(O)cc2)C(=O)N(C)[C@@H](C)C(=O)N[C@@H](CC(N)=O)C(=O)N2CCC[C@H]2C(=O)N[C@@H](CN)C(=O)N[C@@H](CC(C)C)C(=O)N2C[C@H](O)C[C@H]2C(=O)N[C@@H](Cc2c[nH]c3ccccc23)C(=O)N[C@@H](CO)C(=O)N[C@@H](Cc2c(-c3ccc(OC)cc3)[nH]c3ccccc23)C(=O)N1C (some centres unmarked) [Example 7006] ({CH2CO}-Y[NMeA]NP[Dap]L[Hyp]WS[X7][NMeNle][NMeNle][ξR]CG-NH2; thioether N-14) | 0.385 to 6.74 | – | 0.158 to 4.71
CCCC[C@H]1C(=O)N(C)[C@@H](CCCC)C(=O)N[C@@H](CCCNC(=N)N)C(=O)NC(C(=O)N[C@@H](CO)C(N)=O)CSCC(=O)N[C@@H](Cc2ccc(O)cc2)C(=O)N(C)[C@@H](C)C(=O)N[C@@H](CC(N)=O)C(=O)N2CCC[C@H]2C(=O)N[C@@H](Cc2cnc[nH]2)C(=O)N[C@@H](CO)C(=O)N2CCC[C@H]2C(=O)N[C@@H](Cc2c[nH]c3ccccc23)C(=O)N[C@@H](CO)C(=O)N[C@@H](Cc2csc3ccccc23)C(=O)N1C (some centres unmarked) [Example 9076] ({CH2CO}-Y[NMeA]NPHSPWS[Bta][NMeNle][NMeNle]R[ξC]S-NH2; thioether N-14) | 0.385 to 6.74 | – | 4.78 to 72.9
